Entries after “also recorded” stand apart in the source; their conditions may differ.
Experiments:
Akt [1] = assay: Ceramide and cathepsin G blockade of insulin activation of Akt in H9C2 myoblasts; type: cell-based
Method: (§1) H9C2 myoblasts or neonatal rat myocytes were treated with neutrophil protease Cathepsin G (0.01 U/mL), 4 hr or with 100 μM C2-Ceramide (100 μM), 2 hr. Then cells were stimulated with insulin with or without 30 μM T625 for 30 minutes. Lysates were immunoblotted with the indicated antibodies.

Compound stability = type: physicochemical
recombinant pAkt1 = recombinant pAkt1 (Homo sapiens, UniProt P31749); assay: Recombinant phospho-Akt dephosphorylation by PP2A or total cellular phosphatase extracts (immunoblot pT308); type: biochemical; conditions: 30 minutes at 30° C.
Sequence of recombinant pAkt1 (P31749 whole entry): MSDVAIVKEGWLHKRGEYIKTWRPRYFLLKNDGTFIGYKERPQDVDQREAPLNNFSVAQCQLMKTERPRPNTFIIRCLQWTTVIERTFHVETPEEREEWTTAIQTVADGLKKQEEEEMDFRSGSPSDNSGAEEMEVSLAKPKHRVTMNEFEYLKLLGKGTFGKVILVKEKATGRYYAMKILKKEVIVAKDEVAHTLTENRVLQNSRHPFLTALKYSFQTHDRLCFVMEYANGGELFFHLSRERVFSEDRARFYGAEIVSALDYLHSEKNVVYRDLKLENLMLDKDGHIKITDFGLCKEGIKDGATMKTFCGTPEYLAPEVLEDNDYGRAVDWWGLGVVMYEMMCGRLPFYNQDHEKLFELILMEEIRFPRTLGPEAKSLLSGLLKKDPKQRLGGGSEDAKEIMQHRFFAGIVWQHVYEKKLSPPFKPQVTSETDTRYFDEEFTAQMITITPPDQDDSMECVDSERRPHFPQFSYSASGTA
Method: FIG. 1A: Recombinant phospho-Akt (50 ng) were pre-mixed with DMSO or with 40 μM 4H-Chromenes with carboxylate side chain (SC-79 and HA-14) or with 60 μM malononitrile side chain (T625) at 4° C. Then recombinant PP2A (70 ng PP2A-C) or total cellular phosphatase extracts were added and incubated for 30 minutes at 30° C. After incubation, protein extracts were subjected to immunoblot analysis using antibodies detecting phosphorylated Akt (T308), total Akt and PP2A catalytic subunit. FIG. 1B comprises a graph showing the percentage of Akt dephosphorylation at 30 minutes (Dephos. %) (n=6) *P<0.01 vs. DMSO.

cells = assay: Cellular toxicity (cells not specified); type: cell-based
[2] = cited from earlier work
Akt [3] = assay: Aerosolized inhalation (FlexiVent) Akt activation in mouse lung; type: in vivo
Method: 8 week old (wk) wild type mice were deprived of food overnight. Anesthetized mice were intubated on the FlexiVent system and challenged with aerosolized inhaled insulin or T625 as indicated. Lung tissue was harvested 20 minutes after drug inhalation. Extracts were immunoblotted with indicated antibodies.
(§2) A FlexiVent system (SCIREQ) was used to deliver Akt activator, T625, directly to mouse lung. This procedure closely mimics the clinical application of inhaled insulin. […] Akt activators were also administered in the setting of mouse cardiac ischemia-reperfusion injury model (FIGS. 13A-13C). T625 was directly injected into the left ventricular free wall at the time of ischemic ligation of exteriorized heart. Also, to mimic clinical use, (IP) Akt activators were intraperitoneally injected within 10 min after ischemia initiation. It was shown that both directly applied and intraperitoneally injected Akt activators activated Akt in the heart. Finally, a splinted murine excisional wound model that mimic human wound healing was used. Akt activators were placed directly into the wound ring, mimicking the clinical topical application of growth factors.

Akt [4] = assay: Ceramide and cathepsin G blockade of insulin activation of Akt in neonatal rat myocytes; type: cell-based; conditions: 30 μM T625 with insulin, 30 minutes
Method: as §1

Akt [5] = assay: Mouse cardiac ischemia-reperfusion injury model, Akt activation in heart; type: in vivo; conditions: directly injected or intraperitoneally injected after ischemic-ligation
Method: FIG. 13A: A schematic of ischemic-reperfusion procedure indicating drug injection time and heart harvest time. FIG. 13B: Illustrates immunoblots of pS473, Akt phospho-substrate, pPRAS40 and GAPDH in the WES auto-western system. After ischemic-ligation, T625 (0.8 μg in 20 μl PBS) were directly injected at three spots of exposed ventricular wall. Injected insulin was used as a control. FIG. 13C: Illustrates immunoblots of pT308, total Akt (tAkt) and GAPDH and quantified pT308/tAkt ratio. After ischemic-ligation, T620 and T625 were directly injected or intraperitoneally injected.
as §2, with “Akt activators were placed directly into the wound ring, mimicking the clinical topical application of growth factors.” left out

Akt2-LT WT = target: T1, Akt2-LT WT (Homo sapiens, UniProt P31751); assay: Phosphorylation of heterologously expressed Akt2-LT WT in H9C2 myoblasts; type: cell-based; conditions: serum-free media, 2 hr
T1 construct: expressed in transfected cells; host or cells: H9C2 myoblasts
T1 sequence (P31751 whole entry): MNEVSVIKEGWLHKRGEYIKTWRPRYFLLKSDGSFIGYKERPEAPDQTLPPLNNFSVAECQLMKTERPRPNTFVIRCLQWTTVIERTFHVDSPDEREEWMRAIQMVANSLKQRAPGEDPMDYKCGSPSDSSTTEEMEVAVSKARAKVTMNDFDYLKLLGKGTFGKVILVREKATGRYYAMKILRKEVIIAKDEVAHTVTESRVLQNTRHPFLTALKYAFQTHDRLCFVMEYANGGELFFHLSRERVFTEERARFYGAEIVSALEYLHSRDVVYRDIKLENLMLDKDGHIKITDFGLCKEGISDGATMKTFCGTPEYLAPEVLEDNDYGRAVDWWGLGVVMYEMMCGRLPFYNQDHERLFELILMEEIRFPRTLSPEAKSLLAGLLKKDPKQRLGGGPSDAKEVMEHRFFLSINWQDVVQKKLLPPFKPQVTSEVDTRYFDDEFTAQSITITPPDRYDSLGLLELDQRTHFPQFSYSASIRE
Method: FIGS. 2A-2B: illustrate the finding that T625's position 6 analogues differentially activate Akt and induce cellular toxicity. FIG. 2A: To distinguish heterologous-expressed Akt from endogenous Akt, a 41 amino acid large tag containing the HA-epitope was fused with wild type Akt2 (Akt2-LT WT). H9C2 myoblasts over-expressing Akt2-LT WT were treated with insulin or indicated compounds in serum-free media for 2 hr. Phosphorylation of T309 and total Akt2 are shown. FIG. 2B: Cell images show A549 AT2 cell morphology after 24 hr of drug treatment.

[6] = tested on: E17-Y18-I19 and R23-R25 mutated Akt kinase (Akt1-LT); assay: pT308 phosphorylation of mutated Akt1-LT constructs in H9C2 cells; type: cell-based; conditions: 2 μM insulin 15 minutes
Text: FIGS. 3A-3D: illustrate a model of T625 C-6 interaction space within the Akt PH domain and biochemical validation of the model. FIG. 3A: Model of the Akt2 PH-domain bound to T625 where all residue numbering corresponds to the Akt2 sequence. The C-6 Cl group act as the most optimal structural mimetic of the phosphate's electrostatic interactions with Arg23 and surrounding residues. […] To distinguish heterologous-expressed Akt from endogenous Akt, a 41 amino acid large tag containing the HA-epitope was fused with Akt1 (Akt1-LT) and specific mutations were created by site-directed mutagenesis. H9C2 cells expressing the indicated mutant constructs were stimulated for 15 minutes with 2 μM insulin, then switch to serum-free medium with 30 μM T625 as indicated for 60 minutes. […] H9C2 cells expressing the indicated mutant constructs were stimulated for 15 minutes with 2 μM insulin, then switch to serum-free medium with 20 μM T625 as indicated for 90 minutes. Phosphorylation of T308 in Akt1-LT and endogenous Akt, HA and GAPDH loading control blots are shown. FIG. 3D: Graph of specific pT308 phosphorylation in the indicated Akt1-LT constructs with or without T625 treatment. N is indicated.

Akt [7] = assay: Akt activation (phospho-T308, p-PRAS40) in human epithelial cells (Hacat); type: cell-based; conditions: for efficacy in Akt activation compared to RA97 / length of action in Akt activation compared to RA97 / phosphorylation of Akt substrate PRAS40: 40 μM, serum-starved Hacat; for efficacy in Akt activation compared to RA97 / length of action in Akt activation compared to RA97: 2 hr, 4 hr or 24 hr; for synergy with FBS in Akt activation: 10 μM or 20 μM with 0.25% fetal bovine serum; for synergy with FBS in Akt activation / Akt activation at low dose (phospho-T308): Hacat; for synergy with FBS in Akt activation / Akt activation at low dose (phospho-T308) / phosphorylation of Akt substrate PRAS40: 6 hr; for Akt activation at low dose (phospho-T308): 10 μM or 20 μM
Method: FIGS. 6A-6D illustrate immunoblots for Akt activators converted from non-PAINS Akt antagonists. FIG. 6A: 40 μM of each compound derived from sulfonamides, di-tert butylphenols, or pyridines were incubated in human epithelial cells (A549) for 2.5 hr. Lysates were probed for phospho-T308 and total Akt (tAkt) using ProteinSimple WES digital western system. Insulin was uses as positive control. […] 40 μM of each compound was incubated in serum-starved human epithelial cells (Hacat) for 2 hr, 4 hr, or 24 hr as indicated. Cell lysates were probed for phospho-T308 and total Akt (tAkt). […] 10 μM or 20 μM of T775 or T776 were incubated with or without 0.25% fetal bovine serum (FBS) medium in human epithelial cells (Hacat) for 6 hr. Cell lysates were probed for phospho-T308, total Akt (tAkt), and GAPDH. […] 40 μM of each compound was incubated in serum-starved human epithelial cells (Hacat) for 6 hr. Cell lysates were probed for phospho-T308, total Akt (tAkt), Akt substrate, p-PRAS40, and GAPDH.

A549 cells = assay: Cytotoxicity by release of lactate dehydrogenase (LDH) in A549 cells; type: cell-based, human; conditions: 40 μM, 24 hours, serum-free media
Method: Cytotoxicity was determined by the release of lactate dehydrogenase (LDH) into cell culture media. A549 cells were incubated with 40 μM of each compound for 24 hours in serum-free media (n=3 for each compound). FIG. 8B: A visual assessment of cell morphology after 24 hrs treatment with 40 μM of each compound in serum-free media. 100× images are shown.

Hacat cells = assay: Cellular toxicity / cell morphology in Hacat cells after 24 hrs; type: cell-based, human; conditions: 40 μM

CCCCCCCCCCCCC/C=C/[C@@H](O)[C@H](CO)NC(C)=O [C2-ceramide, reference compound]
block of insulin activation of Akt (Akt [1]; 100 μM, 2 hr): block insulin activation of Akt

CCOC(=O)C1=C(N)Oc2ccc(Br)cc2C1C(C#N)C(=O)OCC (centres unmarked) [HA14]
compound stability (Compound stability): highly labile
block of recombinant pAkt1 dephosphorylation by PP2A and cellular phosphatases (recombinant pAkt1; 40 μM compound): enhance intrinsic resistance of the Akt kinase to dephosphorylation; also recorded: block recombinant pAkt1 dephosphorylation by PP2A and cellular phosphatases
cellular toxicity (cells): toxic to cells

CCOC(=O)C1=C(N)Oc2ccc(Cl)cc2C1C(C#N)C(=O)OCC (centres unmarked) [SC79]
compound stability (Compound stability): highly labile
block of recombinant pAkt1 dephosphorylation by PP2A and cellular phosphatases (recombinant pAkt1; 40 μM compound): enhance intrinsic resistance of the Akt kinase to dephosphorylation; also recorded: block recombinant pAkt1 dephosphorylation by PP2A and cellular phosphatases
cellular toxicity (cells): toxic to cells

CC(C)(Sc1cc(C(C)(C)C)c(O)c(C(C)(C)C)c1)Sc1cc(C(C)(C)C)c(OC(=O)CCC(=O)O)c(C(C)(C)C)c1 [Succinobucol]
insulin sensitivity ([2]; literature): improve insulin sensitivity
drug safety ([2]; numerous clinical trials of specific diabetic patient populations): established drug safety record

N#CC1=C(N)Oc2ccc(Cl)cc2C1C(C#N)C#N (centres unmarked) [T625, 2-(2-amino-6-chloro-3-cyano-4H-chromen-4-yl)propanedinitrile]
Akt kinase activation in mouse lung (Akt [3]; 60 μg, delivered directly to mouse lung by FlexiVent): retaining Akt activation; also recorded: robustly activated Akt kinase in mouse lung
insulin sensitivity in vivo (Akt [3]; aerosolized inhaled, lung tissue harvested 20 minutes after inhalation): enhanced insulin sensitivity
Akt activation in mouse lung tissue in combination with insulin (Akt [3]; suboptimal dose 15 μg with suboptimal insulin dose 5 μg): cooperated with suboptimal insulin dose (5 μg) to activate Akt in mouse lung tissue
rescue of ceramide and cathepsin G blockade of Akt activation by insulin (Akt [4]): rescues ceramide and cathepsin G blockade of Akt activation
Akt activation in mouse heart during ischemia-reperfusion (Akt [5]): enhanced Akt activation in mouse heart
compound stability (Compound stability): enhanced compound stability
rescue of ceramide and cathepsin G blockade of Akt activation by insulin (Akt [1]; H9C2 myoblasts, 30 μM T625 with insulin, 30 minutes): rescues ceramide and cathepsin G blockade of Akt activation
block of recombinant pAkt1 dephosphorylation by PP2A and cellular phosphatases (recombinant pAkt1; 60 μM compound): block recombinant pAkt1 dephosphorylation by PP2A and cellular phosphatases
Akt activation in cells (phosphorylation of T309 of Akt2-LT WT) (Akt2-LT WT): retaining Akt activation; also recorded: activate Akt
cellular toxicity (cells): dramatically reduced cellular toxicity
effect on phosphorylation of mutated Akt kinase ([6]; E17-Y18-I19 and R23-R25 mutants, then 30 μM T625 60 minutes): acts as an inhibitor
effect on phosphorylation of mutated Akt kinase ([6]; mutations in E17 and/or 119, then 20 μM T625 90 minutes): converting the T625 response from activation to inhibition

CCCc1nc2ccc(Cl)cc2c(-c2ccccc2)c1C(=O)OCC [T748, ethyl 6-chloro-4-phenyl-2-propylquinoline-3-carboxylate]
efficacy in Akt activation compared to RA97 (Akt [7]): improved efficacy
length of action in Akt activation compared to RA97 (Akt [7]): improved length of action
toxicity compared to RA97 (cells): lack of toxicity

CCCc1nc2ccc(Cl)cc2c(CCC(=O)OCC)c1C(=O)OCC [T775, ethyl 6-chloro-4-(3-ethoxy-3-oxopropyl)-2-propylquinoline-3-carboxylate]
cellular toxicity (LDH release) (A549 cells): failed to show significant cellular toxicity
synergy with FBS in Akt activation (Akt [7]): synergize with FBS
Akt activation at low dose (phospho-T308) (Akt [7]): activate Akt
efficacy in Akt activation compared to RA97 (Akt [7]): improved efficacy
length of action in Akt activation compared to RA97 (Akt [7]): improved length of action
phosphorylation of Akt substrate PRAS40 (Akt [7]): phosphorylated Akt substrate, PRAS40
toxicity compared to RA97 (cells): lack of toxicity
cellular toxicity (Hacat cells): failed to show significant cellular toxicity

CCOC(=O)CCc1c(C(=O)OCC)c(C(C)(C)C)nc2ccc(Cl)cc12 [T776, ethyl 2-tert-butyl-6-chloro-4-(3-ethoxy-3-oxopropyl)quinoline-3-carboxylate]
cellular toxicity (LDH release) (A549 cells): failed to show significant cellular toxicity
synergy with FBS in Akt activation (Akt [7]): synergize with FBS
Akt activation at low dose (phospho-T308) (Akt [7]): activate Akt
efficacy in Akt activation compared to RA97 (Akt [7]): improved efficacy
length of action in Akt activation compared to RA97 (Akt [7]): improved length of action
phosphorylation of Akt substrate PRAS40 (Akt [7]): phosphorylated Akt substrate, PRAS40
toxicity compared to RA97 (cells): lack of toxicity
cellular toxicity (Hacat cells): failed to show significant cellular toxicity

B1: cathepsin G: neutrophil protease Cathepsin G (protein, UniProt P08311 21-244, looked up)
Cathepsin G: IIGGRESRPHSRPYMAYLQIQSPAGQSRCGGFLVREDFVLTAAHCWGSNINVTLGAHNIQRRENTQQHITARRAIRHPQYNQRTIQNDIMLLQLSRRVRRNRNVNPVALPRAQEGLRPGTLCTVAGWGRVSMRRGTDTLREVQLRVQRDRQCLRIFGSYDPRRQICVGDRRERKAAFKGDSGGPLLCNNVAHGIVSYGKSSGVPPEVFTRVSSFLPWIRTTMRS
block of insulin activation of Akt (Akt [1]; 0.01 U/mL, 4 hr): block insulin activation of Akt
